Values joined by “and” are separate entries in the source; they are usually repeats but may differ in a detail not shown here. Identical values can stand only once. Ends that are not written are not given here.

One experiment concerns the target T1, purified F1-ATPase (Bos taurus, UniProt P00829+P19483).
T1 construct: F1 ATPase subcomplexes were isolated from bovine cardiac samples; from tissue; host or cells: bovine heart (alkaline submitochondrial particles, chloroform extraction, method of Walker et al. 1995)
The experiment is described as follows: ATP hydrolysis by purified F1-ATPase. The note with it: bovine cardiac F1-ATPase; read-out: IC50 for inhibition of ATP hydrolysis by purified F1-ATPase. Type of experiment: biochemical. The protocol:
(§1) F0-F1 ATPase complexes and F1 ATPase subcomplexes were isolated from bovine cardiac samples essentially according to the method of Walker et al. (Methods in Enzymology 260:163-190, 1995), with the exception that, instead of preparing SMPs (submitochondrial particles) at neutral pH, ASMPs (alkaline submitochondrial particles; see Rouslin and Broge, Anal. Biochem. 222:68-75, 1994) were prepared from bovine heart by sonication in a basic solution. The ASMPs were extracted with chloroform and used to prepare F0-F1 ATPase and F1 ATPase according to the method of Walker et al. (Methods in Enzymology 260:163-190, 1995).
(§2) One assay for ATPase activity involves measuring ATP hydrolysis according to methods known in the art (Walker et al., Methods in Enzymology 260:163-190, 1995; Rouslin and Broge, Anal. Biochem. 222:68-75, 1994). Such assays can be performed using purified F0-F1 ATPase complexes or F1 ATPase subcomplexes, or using alkaline submitochondrial particles (ASMPs).
In an initial experiment to validate the reagents and assay system, Aurovertin-B was used as a positive control. This antibiotic binds to and inhibits the activity of bacterial and mitochondrial ATPases (van Raaij et al., Proc. Natl. Acad. Sci. US.A. 93:14 6913-14 6917, 1996). The purified F1-ATPase described in the preceding Example was treated with varying concentrations of Aurovertin-B, and ATP hydrolyis was measured.

The subject of experiment [1] is INS-1 cells. The experiment is described as follows: Mitochondrial DNA content of INS-1 cells by slot blot with COX-I probe. The note with it: for effect on mtDNA content: INS-1 cells incubated for seven days with nucleoside analog.
Experiment [2] deals with INS-1 cells. Description: Glucose-responsive insulin secretion by INS-1 cells depleted of mtDNA. The note with it: cells treated with ddC (10 μM) for over 20 days; any glucose level tested. Type of experiment: cell-based, rat. The protocol: INS-1 cells, or ρ^0 INS-1 cells generated using ddC as described above, were seeded into 12-well plates containing RPMI media supplemented as described at 0.5×10^6 cells/well and cultured at 37° C., 5% CO2 for 2 days. Cells (0.7×10^6 cells/well were rinsed with glucose-free KRH buffer (134 mM NaCl, 4.7 mM KCl, 1.2 mM KH2PO4, 1.2 mM MgSO4, 1.0 mM CaCl2, 10 mM HEPES, 10 mM NaHCO3, 0.5% BSA), then incubated in the same buffer for 1 hr at 37° C. in a humidified 5% CO2/95% air atmosphere. Fresh KRH buffer containing 0.5 mM isobutylmethyl xanthine and the following secretagogues was added: 5 mM glucose, 10 mM glucose, 20 mM glucose, 5 mM KCl or 20 mM KCl. After an additional 1 hr at 37° C., 5% CO2 the culture supernatants were collected. Insulin concentrations in the supernatants were measured and normalized to cell number using an insulin-specific radioimmunoassay kit (ICN Biochemicals, Irvine, Calif.) according to the manufacturer's instructions.

In another experiment the target is T2, F0-F1-ATPase (Bos taurus, UniProt P00829+P19483).
T2 construct: F0-F1 ATPase complexes and F1 ATPase subcomplexes were isolated from bovine cardiac samples; from tissue; host or cells: bovine heart (from alkaline submitochondrial particles, method of Walker et al. 1995)
Description: ATP hydrolysis by purified F0-F1-ATPase. Type of experiment: biochemical. The note with it: bovine cardiac F0-F1-ATPase. The protocol: as §1, §2
In like fashion, the two IF1 polypeptide derivatives were tested for their ability to inhibit the purified F1-ATPase and F0-F1-ATPase. The results (FIG. 5) indicate that both synthetic polypeptides inhibited the F1 ATPase. […]

Take `CC[C@H]1O[C@]2(C)[C@H](OC(C)=O)[C@@]1(C)O[C@@H](/C=C/C=C/C=C/c1oc(=O)cc(OC)c1C)[C@@H]2O` [Aurovertin-B]: at purified F1-ATPase, the IC50 amounted to 850 nM.

On to `Cc1cn([C@H]2C=C[C@@H](CO)O2)c(=O)[nH]c1=O` [d4T], for which the “effect on mtDNA content” value in the experiment with INS-1 cells [1] is “decreased mtDNA content in a dose-dependent fashion”.

As to `Nc1ccn([C@H]2CC[C@@H](CO)O2)c(=O)n1` [ddC, 2′3′-dideoxycytidine], the “glucose stimulated insulin secretion” value in the experiment with INS-1 cells [2] was “not observed”. Besides, in the experiment on INS-1 cells [1], the “effect on mtDNA content” value is on record as “decreased mtDNA content in a dose-dependent fashion”. Also, in the experiment with INS-1 cells [1] (INS-1 cells incubated with 25 ∥M ddC, after 21 days), the mtDNA detection result is reported as “undetectable”. Also, in the experiment on INS-1 cells [1] (read-out: IC50 for decrease of mtDNA content, INS-1 cells, seven days), the IC50 was about 50000 nM.

With `O=c1[nH]cnc2c1ncn2[C@H]1CC[C@@H](CO)O1` [ddI, 2′3′-dideoxyinosine], the “effect on mtDNA content” value in the experiment with INS-1 cells [1] was “decreased mtDNA content in a dose-dependent fashion”.

Consider FGKREKAEEDRYFREKTREQLAALK [IF1(22-46)], for which the “IC50 for inhibition of purified F0-F1-ATPase” value on F0-F1-ATPase is recorded as “no effect”.

Turning to LAALKKHHEDEIDHHSK [IF1(42-58)], the IC50 on F0-F1-ATPase (read-out: IC50 for inhibition of purified F0-F1-ATPase) was ~180 nM and 180 nM.

By IC50 is commonly meant the concentration that inhibits the measured activity by half.
